Reference: patent publication US20180155344A1, “TRICYCLIC PIPERIDINE COMPOUNDS” (ACTELION PHARMACEUTICALS LTD, priority 2015, published 2018)

Legend:
5HT [1] = settings: 200 mg/kg i.p. qid for 3 days, cited from earlier work
cholangiocarcinoma = settings: xenograft model of cholangiocarcinoma; cited from earlier work
human TPH1 = target: T1, human TPH1 (Homo sapiens, UniProt P17752); experiment: biochemical
T1 sequence (P17752 1-444): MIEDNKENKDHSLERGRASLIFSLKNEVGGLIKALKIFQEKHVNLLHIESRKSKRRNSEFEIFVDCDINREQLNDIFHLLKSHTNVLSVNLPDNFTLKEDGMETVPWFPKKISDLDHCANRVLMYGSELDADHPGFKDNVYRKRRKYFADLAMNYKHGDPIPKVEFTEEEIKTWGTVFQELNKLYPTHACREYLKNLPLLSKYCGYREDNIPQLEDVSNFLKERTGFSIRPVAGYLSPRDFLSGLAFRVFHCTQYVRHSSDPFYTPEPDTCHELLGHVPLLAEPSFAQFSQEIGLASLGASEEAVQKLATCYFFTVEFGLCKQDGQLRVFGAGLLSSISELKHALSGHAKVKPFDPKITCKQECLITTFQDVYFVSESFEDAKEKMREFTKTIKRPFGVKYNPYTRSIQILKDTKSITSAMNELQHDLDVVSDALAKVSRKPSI
Summary of the method: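 Inhibition is derived from 5-hydroxy-L-tryptophan fluorescence (540 nm emission, 300 nm excitation) after perchloric acid stop, relative to DMSO vehicle. Recombinant full-length human enzyme (40-80 nM) reacts with 40 μM tryptophan plus 100 μM methyltetrahydropterin, pH 7.6 Tris/DTT/catalase, 15° C, 60 min.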

5HT [2] = settings: mice, cited from earlier work
5HT [3] = settings: cited from earlier work
5HT [4] = settings: phase IIA study, qid; cited from earlier work

SMILES	IC50 (human TPH1) [nM]	further results
N[C@@H](Cc1ccc(Cl)cc1)C(=O)O (racemic) [PCA, p-chlorophenylalanine]	–	5HT in the brain (5HT [1]; brain): ~20 % original; 5HT in the gut (5HT [1]; gut): ~50 % original; tumor volume (cholangiocarcinoma): dramatic reduction in tumor volume
O=C(COc1ccc(N2CCOCC2)nc1Cl)N1CCc2nc3cccnn3c2C1c1ncc(C2CC2)cc1F (stereo not shown) [Example 16.2.1, 2-((2-chloro-6-morpholinopyridin-3-yl)oxy)-1-(9-(5-cyclopropyl-3-fluoropyridin-2-yl)-6,9-dihydropyrido[4′,3′:4,5]imidazo[1,2-b]pyridazin-8(7H)-yl)ethan-1-one]	14	–
CCc1nc(C)ccc1OCC(=O)N1CCc2nc3cccnn3c2C1c1ncc(C2CC2)cc1F (stereo not shown) [Example 16.2.2, 1-(9-(5-cyclopropyl-3-fluoropyridin-2-yl)-6,9-dihydropyrido[4′,3′:4,5]imidazo[1,2-b]pyridazin-8(7H)-yl)-2-((2-ethyl-6-methylpyridin-3-yl)oxy)ethan-1-one]	128	–
O=C(COc1cccnc1C(F)(F)F)N1CCc2nc3cccnn3c2C1c1ncc(C2CC2)cc1F (stereo not shown) [Example 16.2.3, 1-(9-(5-cyclopropyl-3-fluoropyridin-2-yl)-6,9-dihydropyrido[4′,3′:4,5]imidazo[1,2-b]pyridazin-8(7H)-yl)-2-((2-(trifluoromethyl)pyridin-3-yl)oxy)ethan-1-one]	144	–
O=C(COc1ccc(C(F)(F)F)cc1Cl)N1CCc2nc3cccnn3c2C1c1ncc(C2CC2)cc1F (stereo not shown) [Example 16.2.5, 2-(2-chloro-4-(trifluoromethyl)phenoxy)-1-(9-(5-cyclopropyl-3-fluoropyridin-2-yl)-6,9-dihydropyrido[4′,3′:4,5]imidazo[1,2-b]pyridazin-8(7H)-yl)ethan-1-one]	238	–
O=C(COc1ccc(C(F)(F)F)nc1Cl)N1CCc2nc3cccnn3c2C1c1ncc(C2CC2)cc1F (stereo not shown) [Example 16.2.6, 2-((2-chloro-6-(trifluoromethyl)pyridin-3-yl)oxy)-1-(9-(5-cyclopropyl-3-fluoropyridin-2-yl)-6,9-dihydropyrido[4′,3′:4,5]imidazo[1,2-b]pyridazin-8(7H)-yl)ethan-1-one]	290	–
CN(C)C(=O)c1csc(C2c3c(nc4cccnn34)CCN2C(=O)COc2ccc(N3CCOCC3)nc2Cl)c1 (stereo not shown) [Example 16.3.1, 5-(8-(2-((2-Chloro-6-morpholinopyridin-3-yl)oxy)acetyl)-6,7,8,9-tetrahydropyrido[4′,3′:4,5]imidazo[1,2-b]pyridazin-9-yl)-N,N-dimethylthiophene-3-carboxamide]	43	–
CS(=O)(=O)Nc1ccc(OCC(=O)N2CCc3nc4cccnn4c3C2c2ccc(Cl)cc2F)c(Cl)n1 (stereo not shown) [Example 16.4.1, N-(6-chloro-5-(2-(9-(4-chloro-2-fluorophenyl)-6,9-dihydropyrido[4′,3′:4,5]imidazo[1,2-b]pyridazin-8(7H)-yl)-2-oxoethoxy)pyridin-2-yl)methanesulfonamide]	167	–
CCc1nc(NS(C)(=O)=O)ccc1OCC(=O)N1CCc2nc3cccnn3c2C1c1sc(C)nc1C (stereo not shown) [Example 16.5.1, N-(5-(2-(9-(2,4-dimethylthiazol-5-yl)-6,9-dihydropyrido[4′,3′:4,5]imidazo[1,2-b]pyridazin-8(7H)-yl)-2-oxoethoxy)-6-ethylpyridin-2-yl)methanesulfonamide]	31	–
O=C(COc1ccc(N2CCOCC2)nc1Cl)N1CCc2nc3cnccn3c2C1c1ccc(C2CC2)cc1F (stereo not shown) [Example 17.1.1, 2-((2-chloro-6-morpholinopyridin-3-yl)oxy)-1-(1-(4-cyclopropyl-2-fluorophenyl)-3,4-dihydropyrido[4′,3′:4,5]imidazo[1,2-a]pyrazin-2(1H)-yl)ethan-1-one]	29	–
CS(=O)(=O)Nc1ccc(OCC(=O)N2CCc3nc4cnccn4c3C2c2ccc(Cl)cc2F)c(Cl)n1 (stereo not shown) [Example 17.2.1, N-(6-chloro-5-(2-(1-(4-chloro-2-fluorophenyl)-3,4-dihydropyrido[4′,3′:4,5]imidazo[1,2-a]pyrazin-2(1H)-yl)-2-oxoethoxy)pyridin-2-yl)methanesulfonamide]	214	–
CCc1nc(NS(C)(=O)=O)ccc1OCC(=O)N1CCc2nc3cnccn3c2C1c1sc(C)nc1C (stereo not shown) [Example 17.3.1, N-(5-(2-(1-(2,4-dimethylthiazol-5-yl)-3,4-dihydropyrido[4′,3′:4,5]imidazo[1,2-a]pyrazin-2(1H)-yl)-2-oxoethoxy)-6-ethylpyridin-2-yl)methanesulfonamide]	461	–
O=C(COc1ccc(N2CCOCC2)nc1Cl)N1CCc2nc3ncccn3c2C1c1ccc(C2CC2)cc1F (stereo not shown) [Example 18.1.1, 2-((2-chloro-6-morpholinopyridin-3-yl)oxy)-1-(6-(4-cyclopropyl-2-fluorophenyl)-8,9-dihydropyrido[4′,3′:4,5]imidazo[1,2-a]pyrimidin-7(6H)-yl)ethan-1-one]	56	–
Nc1nc(OC(c2ccc(-c3cccc(F)c3)cc2)C(F)(F)F)cc(-c2ccc(C[C@H](N)C(=O)O)cc2)n1 (stereo partly shown) [LP533401]	–	brain 5HT concentrations (5HT [2]; brain): without effecting brain concentrations; gut 5HT (5HT [2]; gut): lower gut 5HT
COc1cccc(-c2ccc([C@@H](Oc3cc(-c4ccc(C[C@H](N)C(=O)O)cc4)nc(N)n3)C(F)(F)F)cc2)c1 [LX1031, (S)-2-Amino-3-(4-{2-amino-6-[(R)-2,2,2-trifluoro-1-(3′-methoxy-biphenyl-4-yl)-ethoxy]-pyrimidin-4-yl}-phenyl)-propionic acid]	–	brain 5HT (5HT [3]; brain): no effect on brain 5HT; 5HT in the colon (5HT [3]; colon): only a minor reduction; 5HT in the jejunum (5HT [3]; jejunum): lowers 5HT in the jejunum; blood 5HT (5HT [4]): did not affect blood 5HT; urinary 5HIAA reduction (5HT [4]): up to 30%
